According to ChEMBL document CHEMBL1955725, “Structure-guided lead optimization of triazolopyrimidine-ring substituents identifies potent Plasmodium falciparum dihydroorotate dehydrogenase inhibitors with clinical candidate potential” (J Med Chem, 2011):
Values after ≈ are worked out from the molar mass of the structure shown.

Experiments:
Mus musculus [1] = assay: Time plasma concentration remained above 1 uM in Swiss outbred mouse plasma at 2 mg/kg, po; format: ADME, organism-based; design: dose 2 mg/kg, route oral; details: in vivo
Plasmodium falciparum [2] = assay: Antimalarial activity against Plasmodium falciparum 3D7 by [3H]hypoxanthine incorporation assay in presence of albumax; format: functional, organism-based
in vivo [3] = details: NOD-SCID IL-2Rgamma-null, mouse, po, 7 mg/kg
[4] = Cmax in Swiss outbred mouse at 50 mg/kg, po; format: ADME, organism-based; design: dose 50 mg/kg, route oral; details: in vivo
Plasmodium falciparum [5] = assay: Antimalarial activity against […] Plasmodium falciparum TM90C2A by [3H]hypoxanthine incorporation assay in presence of human serum; format: functional, organism-based
[6] = AUC (0 to infinity) in Sprague-Dawley rat at 46.7 mg/kg, po; format: ADME, organism-based; design: time infinity, dose 46.7 mg/kg, route oral; details: plasma
[7] = Terminal elimination half life in Sprague-Dawley rat at 2.1 mg/kg, po; format: ADME, organism-based; design: dose 2.1 mg/kg, route oral; details: in vivo, read-out: beta t1/2 (converted)
Mus musculus [8] = assay: Time plasma concentration remained above 1 uM in Swiss outbred mouse plasma at 0.4 mg/kg, po; format: ADME, organism-based; design: dose 0.4 mg/kg, route oral; details: in vivo
[9] = AUC (0 to infinity) in Swiss outbred mouse plasma at 10 mg/kg, po; format: ADME, organism-based; design: time infinity, dose 10 mg/kg, route oral
Plasmodium falciparum [10] = assay: Antimalarial activity against drug-sensitive Plasmodium falciparum HB3 by [3H]hypoxanthine incorporation assay in presence of human serum; format: functional, organism-based
Liver microsomes = assay: Intrinsic clearance in human liver microsomes; format: ADME, Microsome
[11] = Cmax in human RBC engrafted NOD-SCID IL-2Rgamma-null mouse at 7 mg/kg, po; format: ADME, organism-based; design: dose 7 mg/kg, route oral; details: in vivo
L1210 = assay: Cytotoxicity against mouse L1210 cells; format: cell-based
[12] = Terminal elimination half life in Swiss outbred mouse at 2 mg/kg, po; format: ADME, organism-based; design: dose 2 mg/kg, route oral; details: in vivo, read-out: beta t1/2 (converted)
Plasmodium falciparum [13] = assay: Antimalarial activity against Plasmodium falciparum 3D7 0087/N9 infected in human RBC engrafted NOD-SCID IL-2Rgamma-null mouse assessed as reduction in parasitemia administered orally 3 days post infection qd for 4 days measured 24 hrs after final dose by FACS analysis; format: functional; details: 3D7 0087/N9, po
Plasmodium falciparum [14] = assay: Antimalarial activity against Plasmodium falciparum D10 transfected with yeast DHODH by [3H]hypoxanthine incorporation assay; format: functional, organism-based
[15] = Aqueous solubility of the compound at pH 6.5; format: physicochemical
Plasmodium falciparum [16] = assay: Antimalarial activity against Plasmodium falciparum 3D7 by [3H]hypoxanthine incorporation assay in presence of human serum; format: functional, organism-based
[17] = Plasma protein binding in Sprague-Dawley rat at 2.1 to 46.7 mg/kg, po; format: ADME, organism-based; design: dose 2.1-46.7 mg/kg, route oral; details: read-out: PPB (converted)
[18] = Cmax in human RBC engrafted NOD-SCID IL-2Rgamma-null mouse infected with Plasmodium falciparum 3D7 0087/N9 at 7 mg/kg, po; format: ADME, organism-based; design: dose 7 mg/kg, route oral; details: in vivo
Plasmodium falciparum [19] = assay: Antimalarial activity against Plasmodium falciparum D10 by [3H]hypoxanthine incorporation assay; format: functional, organism-based
[20] = Cmax in Swiss outbred mouse at 2 mg/kg, po; format: ADME, organism-based; design: dose 2 mg/kg, route oral; details: in vivo
HepG2 = assay: Cytotoxicity against human HepG2 cells; format: cell-based
[21] = Terminal elimination half life in Swiss outbred mouse at 10 mg/kg, po; format: ADME, organism-based; design: dose 10 mg/kg, route oral; details: in vivo, read-out: beta t1/2 (converted)
in vivo [22] = details: Swiss outbred, mouse, po, 2 mg/kg
[23] = Volume of distribution in Sprague-Dawley rat at 0.9 mg/kg, iv; format: ADME, organism-based; design: dose 0.9 mg/kg, route intravenous; details: in vivo
[24] = Terminal elimination half life in Sprague-Dawley rat at 0.9 mg/kg, iv; format: ADME, organism-based; design: dose 0.9 mg/kg, route intravenous; details: in vivo, read-out: beta t1/2 (converted)
in vivo [25] = details: Swiss outbred, mouse, po, 50 mg/kg
in vivo [26] = details: Sprague-Dawley, rat, po, 46.7 mg/kg
[27] = Cmax in Swiss outbred mouse at 0.4 mg/kg, po; format: ADME, organism-based; design: dose 0.4 mg/kg, route oral; details: in vivo
[28] = Clearance in Sprague-Dawley rat at 2.6 mg/kg, iv; format: ADME, organism-based; design: dose 2.6 mg/kg, route intravenous; details: in vivo
Plasmodium falciparum [29] = assay: Antimalarial activity against atovoquone-resistant Plasmodium falciparum TM90C2B by [3H]hypoxanthine incorporation assay in presence of human serum; format: functional, organism-based
[30] = AUC (0 to infinity) in Swiss outbred mouse plasma at 0.4 mg/kg, po; format: ADME, organism-based; design: time infinity, dose 0.4 mg/kg, route oral
[31] = Cmax in Swiss outbred mouse at 10 mg/kg, po; format: ADME, organism-based; design: dose 10 mg/kg, route oral; details: in vivo
[32] = Oral bioavailability in Sprague-Dawley rat at 2.1 mg/kg; format: ADME, organism-based; details: in vivo
[33] = Terminal elimination half life in Sprague-Dawley rat at 46.7 mg/kg, po; format: ADME, organism-based; design: dose 46.7 mg/kg, route oral; details: in vivo, read-out: beta t1/2 (converted)
in vivo [34] = details: NOD-SCID IL-2Rgamma-null, mouse, po, 7 mg/kg; remark: listed apart in the source
in vivo [35] = details: Swiss outbred, mouse, po, 10 mg/kg
Plasmodium falciparum [36] = assay: Antimalarial activity against chloroquine and pyrimethamine-resistant Plasmodium falciparum K1 by [3H]hypoxanthine incorporation assay in presence of human serum; format: functional, organism-based
[37] = Cmax in Sprague-Dawley rat at 46.7 mg/kg, po; format: ADME, organism-based; design: dose 46.7 mg/kg, route oral; details: in vivo
Mus musculus [38] = assay: AUC (0 to 24 hrs) in human RBC engrafted NOD-SCID IL-2Rgamma-null mouse at 7 mg/kg, po; format: ADME, organism-based, Plasma; design: time < 24 hr, dose 7 mg/kg, route oral; details: in vivo
[39] = AUC (0 to infinity) in Swiss outbred mouse plasma at 2 mg/kg, po; format: ADME, organism-based; design: time infinity, dose 2 mg/kg, route oral
[40] = AUC (0 to infinity) in Sprague-Dawley rat at 18.8 mg/kg, po; format: ADME, organism-based; design: time infinity, dose 18.8 mg/kg, route oral; details: plasma
in vivo [41] = details: Sprague-Dawley, rat, po, 2.1 mg/kg
[42] = Plasma protein binding in Swiss outbred mouse by ultracentrifugation; details: read-out: PPB (converted)
[43] = Cmax in Sprague-Dawley rat at 18.8 mg/kg, po; format: ADME, organism-based; design: dose 18.8 mg/kg, route oral; details: in vivo
Mus musculus [44] = assay: Time plasma concentration remained above 1 uM in Swiss outbred mouse plasma at 10 mg/kg, po; format: ADME, organism-based; design: dose 10 mg/kg, route oral; details: in vivo
Plasmodium falciparum [45] = assay: Antimalarial activity against drug-sensitive Plasmodium falciparum D6 by [3H]hypoxanthine incorporation assay in presence of human serum; format: functional, organism-based
[46] = AUC (0 to infinity) in Sprague-Dawley rat at 2.1 mg/kg, po; format: ADME, organism-based; design: time infinity, dose 2.1 mg/kg, route oral; details: plasma
[47] = Volume of distribution in Sprague-Dawley rat at 2.6 mg/kg, iv; format: ADME, organism-based; design: dose 2.6 mg/kg, route intravenous; details: in vivo
Plasma = assay: Plasma protein binding in human by chromatographic method; format: ADME, cell-free
[48] = Terminal elimination half life in Swiss outbred mouse at 50 mg/kg, po; format: ADME, organism-based; design: dose 50 mg/kg, route oral; details: in vivo, read-out: beta t1/2 (converted)
in vivo [49] = details: Swiss outbred, mouse, po, 0.4 mg/kg
[50] = Terminal elimination half life in Sprague-Dawley rat at 18.8 mg/kg, po; format: ADME, organism-based; design: dose 18.8 mg/kg, route oral; details: in vivo, read-out: beta t1/2 (converted)
[51] = Oral bioavailability in Sprague-Dawley rat at 46.7 mg/kg; format: ADME, organism-based; details: in vivo
[52] = Oral bioavailability in Sprague-Dawley rat at 18.8 mg/kg; format: ADME, organism-based; details: in vivo
[53] = Cmax in Sprague-Dawley rat at 2.1 mg/kg, po; format: ADME, organism-based; design: dose 2.1 mg/kg, route oral; details: in vivo
in vivo [54] = details: Sprague-Dawley, rat, po, 18.8 mg/kg
Plasmodium falciparum [55] = assay: Antimalarial activity against chloroquine-resistant Plasmodium falciparum Dd2 by [3H]hypoxanthine incorporation assay in presence of human serum; format: functional, organism-based
[56] = AUC (0 to infinity) in Swiss outbred mouse plasma at 50 mg/kg, po; format: ADME, organism-based; design: time infinity, dose 50 mg/kg, route oral
[57] = Terminal elimination half life in Swiss outbred mouse at 0.4 mg/kg, po; format: ADME, organism-based; design: dose 0.4 mg/kg, route oral; details: in vivo, read-out: beta t1/2 (converted)
[58] = Terminal elimination half life in Sprague-Dawley rat at 2.6 mg/kg, iv; format: ADME, organism-based; design: dose 2.6 mg/kg, route intravenous; details: in vivo, read-out: beta t1/2 (converted)

For Cc1cc(Nc2ccc(S(F)(F)(F)(F)F)cc2)n2nc(C(C)(F)F)nc2n1 [DSM-265], the Time (Mus musculus [1]) was 0 h, the EC50 (Plasmodium falciparum [2]) was 7.8 nM and the Tmax (in vivo [3]) was 4 h. The Cmax [4] was 9.53 µM, the EC50 (Plasmodium falciparum [5]) was 31 nM and the AUC(0-inf) [6] was 322 µM·h. The half-life [7] was 11.6 h, the Time (Mus musculus [8]) was 0 h and the AUC(0-inf) [9] was 22.6 µM·h. It also gave an EC50 (Plasmodium falciparum [10]) of 27 nM, an Intrinsic clearance (Liver microsomes) of under 5 µL/min/mg and a Cmax [11] of 6.1 µM. The EC50 (L1210) was over 50000 nM, the half-life [12] was 3.5 h and the ED50 (Plasmodium falciparum [13]) was 2.8 mg/kg. It also gave an ED90 (Plasmodium falciparum [13]) of 8.1 mg/kg, an EC50 (Plasmodium falciparum [14]) of over 20000 nM and a solubility [15] of 30 µM (≈ 12.5 µg/mL). It also gave an EC50 (Plasmodium falciparum [16]) of 46 nM, a fraction unbound [17] of 0.027 and a Cmax [18] of 5.3 µM. It also gave an EC50 (Plasmodium falciparum [19]) of 86 nM, a Cmax [20] of 0.44 µM and an EC50 (HepG2) of over 50000 nM. It also gave a half-life [21] of 2.5 h, a Tmax (in vivo [22]) of 1 h and a Vd [23] of 2.9 L/kg. It also gave a half-life [24] of 10.1 h, a Tmax (in vivo [25]) of 2 h and a Tmax (in vivo [26]) of 17 h. The Cmax [27] was 0.06 µM, the clearance [28] was 6 mL/min/kg and the EC50 (Plasmodium falciparum [29]) was 15 nM. It also gave an AUC(0-inf) [30] of 0.45 µM·h, a Cmax [31] of 3.1 µM and a bioavailability [32] of 66%. The half-life [33] was 27.9 h, the Tmax (in vivo [34]) was 6.7 h and the Tmax (in vivo [35]) was 1.5 h. The EC50 (Plasmodium falciparum [36]) was 57 nM, the Cmax [37] was 6.4 µM and the AUC (Mus musculus [38]) was 3469 µM·min. The AUC(0-inf) [39] was 2.72 µM·h, the AUC(0-inf) [40] was 122 µM·h and the Tmax (in vivo [41]) was 3.25 h. For the same compound, the fraction unbound [42] was 0.004, the Cmax [43] was 3.9 µM and the Time (Mus musculus [44]) was 8 h. It also gave an EC50 (Plasmodium falciparum [45]) of 22 nM, an AUC(0-inf) [46] of 15.5 µM·h and a Vd [47] of 5.9 L/kg. For the same compound, the PPB (Plasma) was 97.4%, the half-life [48] was 3.2 h and the Tmax (in vivo [49]) was 0.5 h. For the same compound, the half-life [50] was 15.5 h, the bioavailability [51] was 61% and the bioavailability [52] was 57%. For the same compound, the Cmax [53] was 0.75 µM, the Tmax (in vivo [54]) was 7 h and the EC50 (Plasmodium falciparum [55]) was 57 nM. The AUC(0-inf) [56] was 33.8 µM·h, the half-life [57] was 4.1 h and the half-life [58] was 12.6 h.
